Legend:
[1] = Thermal stability test (70° C. color change test); type: physicochemical; settings: 1 mg crystals in 70° C. oven
Description: 1 mg of the crystals obtained in each of Examples 1 and 6 and Comparative Example 2 were placed in a 70° C. oven, and a change in color after 2 hours was observed.

[2] = Reaction with powdered green tea; type: physicochemical; settings: 2 mg powdered green tea + 1 mg crystals + 100 μL water
Description: 2 mg of powdered green tea and 1 mg of the crystals obtained in each of Examples 1 and 6 and Comparative Example 2 were mixed. As a model in which the mixed powder was wet, 100 μL of water was added. […] The crystals 2 were very stable and excellent in powder mixing.

[3] = Test of penetration into skin; settings: 5 mg crystals on pig skin, 80 minutes at 37° C.; [(untreated − treated)/untreated brightness]×100
Description: The skin of a pig was washed with tap water, and the water was completely wiped off. 5 mg of one of crystals was brought into contact with this skin of the pig and then fixed to the skin by wrapping in plastic wrap. After 80 minutes at 37° C., the tape was peeled, and the skin was washed with tap water to remove the test composition adhering to the skin surface. Evaluation was performed by capturing an image of the test composition by a scanner and measuring a change in the brightness of the skin using image software (product name: Paint (software included with Windows (registered trademark) XP, manufactured by Microsoft Corporation). At this time, the change in the brightness of the skin was calculated by [[brightness of untreated skin−brightness after treatment]/[brightness of untreated skin]]×100.

[4] = Thermal stability test (solubility change at 180° C. for 10 minutes); type: physicochemical; settings: for State of dissolution after heating at 180° C. for 10 minutes (with 100 before heating): solubility from absorbance at 330 nm, solubility before heating = 100; for State of dissolution after heating at 180° C. for 10 minutes: 1 mg heated on hot plate, then 10 mL water, stirred 15 minutes
Description: Whether the solubility of crystals changed by heat treatment was tested. […] At this time, the state was recorded. The aqueous solution after the stirring was filtered through a 0.5 μm filter and diluted to 1/10, and absorbance at 330 nm was measured. A change in the solubility of the crystals before and after the heat treatment was examined by this measurement.

Suspension fluidity test = type: physicochemical; settings: 100 g/L in water, mixed at room temperature, observed at 4° C.
Bulk density measurement = type: physicochemical; settings: 10 mL volumetric flask
Description: Bulk density was measured using a 10 mL volumetric flask.

[5] = Solubility and color of mixtures; type: physicochemical
Description: Powders were mixed in a proportion shown in Table 3, and the color of the powder was recorded. 1 mL of water was added to a crystal mass of 10 mg at room temperature. […] The aqueous solution after the cooling was centrifuged, and the supernatant liquid was removed. This was diluted with a phosphate buffer, and the solubility was calculated from absorbance at 330 nm.

O=C(O)c1cc(C(=O)[O-])c2c(n1)C(=O)C(=O)c1cc(C(=O)O)[nH]c1-2.[Na+] [Comparative Example 2, reference compound]
Change in color after 2 hours at 70° C. [1]: Change to black | Color change of tea leaves [2]: changed color to orange | Penetration (change in the brightness of the skin) [3]: 1.6 | State of dissolution after heating at 180° C. for 10 minutes (with 100 before heating) [4]: 71 | Fluidity when crystals are added to water (Suspension fluidity test): No | Bulk specific gravity (Bulk density measurement): 0.20 g/mL

O=C(O)c1cc(C(=O)O)c2c(n1)C(=O)C(=O)c1cc(C(=O)O)[nH]c1-2.[Na] [Example 1, Pyrroloquinoline Quinone Monosodium]
Change in color after 2 hours at 70° C. [1]: No change | Color change of tea leaves [2]: changed color to orange | Penetration (change in the brightness of the skin) [3]: 8.4 | Color in form of powder [5]: Deep red | solubility at 30 min ([5]; thermodynamic from solid, 10 mg in 1 mL water, ultrasonic 5 min, 70 degrees 10 min, cooled 30 min at room temperature, absorbance at 330 nm): 4.5 mM | State of dissolution after heating at 180° C. for 10 minutes [4]: All dissolve | State of dissolution after heating at 180° C. for 10 minutes (with 100 before heating) [4]: 82 | Fluidity when crystals are added to water (Suspension fluidity test): Yes | Bulk specific gravity (Bulk density measurement): 0.29 g/mL

O=C(O)c1cc(C(=O)O)c2c(n1)C(=O)C(=O)c1cc(C(=O)O)[nH]c1-2.[Na].[Na] [Raw material, pyrroloquinoline quinone disodium, reference compound]
Color in form of powder [5]: Red

Dipyrroloquinoline quinone monosodium [Example 7]
Change in color after 2 hours at 70° C. [1]: No change | Color change of tea leaves [2]: did not change color | Penetration (change in the brightness of the skin) [3]: 4.3 | Solubility ([5]; 10 mg in 1 mL water, ultrasonic 5 min, 70 degrees 10 min, cooled 30 min at room temperature, absorbance at 330 nm): 2.1 mM | Color in form of powder [5]: Black | State of dissolution after heating at 180° C. for 10 minutes [4]: All dissolve | State of dissolution after heating at 180° C. for 10 minutes (with 100 before heating) [4]: 100 | Fluidity when crystals are added to water (Suspension fluidity test): Yes | Bulk specific gravity (Bulk density measurement): 0.27 g/mL

From patent publication US11021476B2, “Pyrroloquinoline quinone monosodium and method for producing the same, and composition comprising the same” (Mitsubishi Gas Chemical Company, Inc., priority 2016, dated 2021)
